Data as given in US11161989B2, “Near-infrared absorbing composition, optical structure, and camera module and electronic device comprising the same” (priority 2018, dated 2021).

Tests used:
[1] = Solubility of the copper complex in an organic solvent; format: physicochemical; conditions: organic solvent THF
Procedure: In Table 1, the “solubility” is evaluated as °, when greater than or equal to 50 wt % of a copper complex based on 100 wt % of an entire composition is dissolved in a corresponding organic solvent, and as X, when less than 50 wt % of a copper complex based on 100 wt % of an entire composition is dissolved in a corresponding organic solvent, and “ANIR” is measured under a THF concentration condition of 10 mg/m L.
In Table 2, “solubility” uses the same reference as Table 1.

[2] = Wavelength vs. absorbance of near-infrared absorbing compositions (UV-Vis spectrophotometer); format: physicochemical; conditions: for A430-565 (average absorbance in a visible light wavelength region) / λNIR (maximum absorption wavelength): 10 mg/mL in THF; for ANIR (maximum absorbance): THF concentration condition of 10 mg/mL; for Absorption area of near-infrared wavelength region: curve integrated from 700 nm to 1100 nm; for Absorption area of near-infrared wavelength region / Cut-off wavelength: composition in THF; for Cut-off wavelength: wavelength of 50% light transmittance after normalizing maximum absorbance to 1
Excerpt: In Table 3, the “absorption area of a near-infrared wavelength region” is an area obtained by integrating each curve in a wavelength range from 700 nm to 1100 nm in FIG. 7, and the “cut-off wavelength” is a wavelength where each curve has light transmittance of 50% after normalizing absorbance corresponding to a y-axis of FIG. 7 to have a maximum absorbance of 1 and then, converting the normalized absorbance (An) into light transmittance (T) to satisfy Equation 1. T (%)=10^(2-An).

Row | SMILES | Solubility [1] | A430-565 (average absorbance in a visible light wavelength region) [2] | λNIR (maximum absorption wavelength) [2] [nm] | ANIR (maximum absorbance) [2] | Absorption area of near-infrared wavelength region [2] | Cut-off wavelength [2] [nm]
1 | O=C([O][Cu][O]C(=O)C(F)(F)F)C(F)(F)F [Comparative Example 1, reference compound] | ∘ | 0.020 | 771 | 1.05 | 328 | 636
2 | C=C(C)C(=O)OCCOP(=O)(O)[O][Cu][O]P(=O)(O)OCCOC(=O)C(=C)C [Comparative Example 2, reference compound] | ∘ | 0.001 | 826 | 0.42 | 144 | 740
3 | CCOP(=O)(O)[O][Cu][O]C(=O)C(F)(F)F [Example 2] | ∘ | 0.013 | 794 | 1.16 | – | –
4 | CC(C)OP(=O)(O)[O][Cu][O]C(=O)C(F)(F)F [Example 3] | ∘ | 0.008 | 794 | 1.04 | – | –
5 | O=C([O][Cu][O]P(=O)(Oc1ccccc1)Oc1ccccc1)C(F)(F)F [Example 4] | ∘ | 0.005 | 814 | 0.85 | – | –
6 | Cc1ccc(S(=O)(=O)[O][Cu][O]C(=O)C(F)(F)F)cc1 [Example 6] | ∘ | 0.006 | 825 | 0.70 | 234 | 676
7 | C=C(C)C(=O)OCCOP(=O)(O)[O][Cu][O]C(=O)C(F)(F)F [Example 5] | ∘ | 0.010 | 814 | 0.66 | – | –
